≈ marks a conversion by molar mass, not a printed value.

Holding throughout (experiment): ≥ marks a high value that may be exact or a test limit, other limits are often not marked, values filed in µg/mL are converted to µM
Assay [1] relates to Bacillus subtilis DSM 347.
Assay [2] concerns Escherichia coli DSM 1116.
The subject of assay [3] is Franconibacter helveticus DSM 18390.
The test system of assay [4] is Staphylococcus xylosus DSM 20267.
Assay [5] relates to Aspergillus oryzae NBRC 100959.
The subject of assay [6] is Candida viswanathii NBRC 10321.
The subject of assay [7] is Escherichia coli NBRC 3972.
Assay [8] concerns Micrococcus luteus NBRC 3333.
The subject of assay [9] is Staphylococcus epidermidis NBRC 12993.
The subject of assay [10] is Candida albicans ATCC 2002.
The subject of assay [11] is Candida albicans ATCC 90028.
The subject of assay [12] is Candida parapsilosis ATCC 22019.
The test system of assay [13] is Enterobacter cloacae ATCC 13047.
Assay [14] concerns Enterococcus faecalis ATCC 29212.
For assay [15], the system named is Escherichia coli 37.
For assay [16], the system named is Escherichia coli ATCC 25922.
Assay [17] deals with Klebsiella pneumoniae ATCC 700603.
Assay [18] concerns Klebsiella pneumoniae.
The test system of assay [19] is Pseudomonas aeruginosa ATCC 27853.
Assay [20] deals with Pseudomonas aeruginosa CMCCB 1010.
Assay [21] has as its system Pseudomonas aeruginosa.
In assay [22] the test system is Shigella dysenteriae.
Assay [23] relates to Staphylococcus aureus 37.
Assay [24] relates to Staphylococcus aureus ATCC 25923.
In assay [25] the test system is Pseudomonas aeruginosa 253.
Assay [26] relates to Pseudomonas aeruginosa 910.
Assay [27] deals with Pseudomonas aeruginosa 919.
The test system of assay [28] is Pseudomonas aeruginosa PAO1.
In assay [29] the test system is Klebsiella pneumoniae E406-17.
Assay [30] concerns Pseudomonas aeruginosa E411-17.
Assay [31] has as its system Staphylococcus aureus M838-17.

`CC(C)C[C@H](NC(=O)[C@H](CCCCN)NC(=O)[C@H](CC(C)C)NC(=O)[C@H](CCCCN)NC(=O)[C@H](CC(C)C)NC(=O)[C@H](CCCCN)NC(=O)[C@H](CC(C)C)NC(=O)[C@H](CCCCN)NC(=O)[C@H](CC(C)C)NC(=O)[C@H](CCCCN)NC(=O)[C@H](CC(C)C)NC(=O)[C@H](CCCCN)NC(=O)[C@H](CC(C)C)NC(=O)[C@@H](N)CCCCN)C(N)=O` [KLKLKLKLKLKLKL]: the MIC (usually the smallest concentration in the dilution series that meets the test's criterion for growth inhibition) came to 2.34 µM (≈ 4 µg/mL) in assay [1], 4.69 µM (≈ 8 µg/mL) in [2], 2.34 µM (≈ 4 µg/mL) in assay [3] and 2.34 µM (≈ 4 µg/mL) in [4].
As for `CC[C@H](C)[C@H](NC(=O)[C@H](CCSC)NC(=O)[C@H](CCCN=C(N)N)NC(=O)[C@H](CCCN=C(N)N)NC(=O)[C@H](CC(C)C)NC(=O)[C@H](Cc1ccc(O)cc1)NC(=O)[C@H](CCCN=C(N)N)NC(=O)[C@H](CCCCN)NC(=O)[C@@H](NC(=O)[C@H](CCCCN)NC(=O)[C@@H](N)CCCN=C(N)N)[C@@H](C)CC)C(=O)N[C@@H](Cc1c[nH]c2ccccc12)C(=O)O` [RKIKRYLRRMIW], the MIC in assay [5] is 7.27 µM (≈ 12.5 µg/mL); in [6], 14.5 µM (≈ 25 µg/mL); in [7], at least 116 µM; in [8] it was 14.5 µM (≈ 25 µg/mL); in assay [9], 14.5 µM (≈ 25 µg/mL).
On to `CC[C@H](C)[C@H](NC(=O)[C@@H](NC(=O)[C@@H]1CCCN1C(=O)[C@H](CC(C)C)NC(=O)[C@@H](N)Cc1ccccc1)[C@@H](C)CC)C(=O)NCC(=O)N[C@@H](CCCCN)C(=O)N[C@@H](CC(C)C)C(=O)N[C@@H](CC(C)C)C(=O)N[C@@H](CO)C(=O)NCC(=O)N[C@@H](CC(C)C)C(=O)N[C@@H](CC(C)C)C(=O)O` [FLPIIGKLLSGLL], for which the minimal inhibitory concentration (MIC) turned out to be 7.23 µM (≈ 10 µg/mL) in [10]; 7.23 µM (≈ 10 µg/mL) in [11]; 1.81 µM (≈ 2.5 µg/mL) in assay [12]; 1.81 µM (≈ 2.5 µg/mL) in assay [13]; 3.61 µM (≈ 5 µg/mL) in [14]; 14.5 µM (≈ 20 µg/mL) in [15]. The MIC in assay [16] worked out at 1.81 µM (≈ 2.5 µg/mL); in [17] it was 7.23 µM (≈ 10 µg/mL); in assay [18] it was 28.9 µM (≈ 40 µg/mL); in assay [19], 28.9 µM (≈ 40 µg/mL); in assay [20] it was 7.23 µM (≈ 10 µg/mL); in [21] it was 3.61 µM (≈ 5 µg/mL). The MIC amounted to 14.5 µM (≈ 20 µg/mL) in assay [22], 3.61 µM (≈ 5 µg/mL) in [23] and 0.867 µM (≈ 1.2 µg/mL) in [24].
On to `CC[C@H](C)[C@H](NC(=O)[C@@H](N)Cc1ccccc1)C(=O)N[C@@H](CCCCN)C(=O)N[C@@H](CCCN=C(N)N)C(=O)N[C@@H](CCCCN)C(=O)N[C@@H](CO)C(=O)N[C@@H](CCCN=C(N)N)C(=O)N[C@@H](Cc1c[nH]c2ccccc12)C(=O)N[C@@H](Cc1c[nH]c2ccccc12)C(=O)N[C@@H](CCCCN)C(=O)N[C@@H](Cc1c[nH]c2ccccc12)C(=O)N[C@@H](CCCN=C(N)N)C(=O)N[C@H](C(N)=O)[C@@H](C)O` [FIKRKSRWWKWRT], for which the MIC in assay [25] is 11.3 µM (≈ 21.2 µg/mL); in assay [26], 8 µM (≈ 15 µg/mL); in assay [27], at least 32 µM; in [28], 4 µM (≈ 7.51 µg/mL).
Turning to `CC(C)C[C@H](NC(=O)[C@H](Cc1c[nH]c2ccccc12)NC(=O)[C@H](Cc1c[nH]c2ccccc12)NC(=O)[C@H](Cc1c[nH]c2ccccc12)NC(=O)[C@H](CCCN=C(N)N)NC(=O)[C@H](CCCN=C(N)N)NC(=O)[C@H](CCCN=C(N)N)NC(=O)[C@@H](N)CCCN=C(N)N)C(N)=O` [RRRRWWWL], the minimal inhibitory concentration (MIC) in assay [29] was at least 50 µM; in assay [30], 12.5 µM (≈ 16.4 µg/mL); in assay [31] it was 6.25 µM (≈ 8.21 µg/mL).

(Values after DBAASP.)
